Test results as given in patent US10899772B2, “IRAK4 modulators” (priority 2017, dated 2021).

Target: human IRAK4 (Homo sapiens (Human), UniProt Q9NWZ3)
Assay: IRAK4 kinase inhibition, Transcreener fluorescence polarization (ADP detection)
Assay type: biochemical
Details: recombinant full-length His6-IRAK4 1.25 nM; 125 μM ATP; 125 μM peptide; 90 min; Ki computed using ATP Km 642 μM
Experimental: Compounds were assayed for inhibition of human IRAK4 and IRAK1 catalytic activity using recombinant enzyme produced from insect cells. Full-length IRAK4 protein, carrying an N-terminal His6-Tag, was obtained from Life Technologies (Carlsbad, Calif., USA). The IRAK1 construct was produced internally and was comprised of IRAK1 residues Arg194 to Ser712, preceded by an NH2-terminal His6 tag and the coding sequence for glutathione-S-transferase.
Kinase activities were assayed using the Transcreener-Fluorecescence polarization platform (BelBrook Labs, Madison, Wis., USA) that measures amounts of the reaction product, ADP.
384 well assay plates spotted with compound received 4 μl of a 2× substrate (ATP+peptide) mix in reaction buffer, followed by 4 μl of 2× enzyme diluted in reaction buffer.

Chain of human IRAK4 (Q9NWZ3 whole entry): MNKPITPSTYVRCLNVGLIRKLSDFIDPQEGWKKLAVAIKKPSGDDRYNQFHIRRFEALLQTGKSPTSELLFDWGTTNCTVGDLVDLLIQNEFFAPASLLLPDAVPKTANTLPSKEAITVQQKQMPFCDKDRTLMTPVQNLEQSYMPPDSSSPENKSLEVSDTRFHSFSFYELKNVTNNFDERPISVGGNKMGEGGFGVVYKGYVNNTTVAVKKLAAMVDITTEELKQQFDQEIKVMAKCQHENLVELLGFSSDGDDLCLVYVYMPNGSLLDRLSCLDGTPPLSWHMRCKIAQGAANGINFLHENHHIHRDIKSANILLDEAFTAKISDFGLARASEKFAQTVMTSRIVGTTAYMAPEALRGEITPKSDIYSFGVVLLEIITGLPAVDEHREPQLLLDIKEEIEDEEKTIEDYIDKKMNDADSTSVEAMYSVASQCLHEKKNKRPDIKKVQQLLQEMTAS

In the case of `CO[C@@H](C)c1cccc(C(=O)Nc2cc3c(cc2N2CCOCC2)C(=O)N(C[C@@H](F)C(C)(C)O)C3)n1` (racemic) [Example 24, N-[6-morpholino-1-oxo-2-[rac-(2R)-2-fluoro-3-hydroxy-3-methyl-butyl]isoindolin-5-yl]-6-[rac-(1S)-1-methoxyethyl] pyridine-2-carboxamide], the Ki is reported as 33 nM.

For `Cc1ccc(-c2cc3c(cc2NC(=O)c2cnc(C)o2)CN(C[C@@H](F)C(C)(C)O)C3=O)nc1` [Example 14, (R)-N-(2-(2-Fluoro-3-hydroxy-3-methylbutyl)-6-(5-methyl-pyridin-2-yl)-1-oxoisoindolin-5-yl)-2-methyloxazole-5-carboxamide], the Ki was 4.2 nM.

For `CN(C)c1cc2c(cc1NC(=O)c1cccc(OC3CCNC3)n1)CN(C[C@@H](F)C(C)(C)O)C2=O` (stereo partly drawn) [Example 13, N-[6-(Dimethylamino)-2-[(2R)-2-fluoro-3-hydroxy-3-methyl-butyl]-1-oxo-isoindolin-5-yl]-6-pyrrolidin-3-yloxy-pyridine-2-carboxamide], the Ki was 5.8 nM.

`CC(C)(O)[C@H](F)CN1Cc2cc(NC(=O)c3ccc[nH]c3=O)c(N3CCOCC3)cc2C1=O` [Example 3, (R)-N-(2-(2-Fluoro-3-hydroxy-3-methylbutyl)-6-morpholino-1-oxoisoindolin-5-yl)-2-oxo-1,2-dihydropyridine-3-carboxamide] showed a Ki of 8.2 nM.

`CC(C)(O)[C@H](F)CN1Cc2cc(NC(=O)c3coc(N4CCOCC4)n3)c(N3CCOCC3)cc2C1=O` [Example 15, (R)-N-(2-(2-Fluoro-3-hydroxy-3-methylbutyl)-6-morpholino-1-oxoisoindolin-5-yl)-2-morpholino-oxazole-4-carboxamide] gave a Ki of 4.6 nM.

`CC(C)(O)[C@H](F)CN1Cc2cc(NC(=O)c3cccc4[nH]cnc34)c(N3CCOCC3)cc2C1=O` [Example 32, N-[2-[(2R)-2-Fluoro-3-hydroxy-3-methyl-butyl]-6-morpholino-1-oxo-isoindolin-5-yl]-1H-benz-imidazole-4-carboxamide] gave a Ki of 1.1 nM.

`CC(C)(O)[C@H](F)CN1Cc2cc(NC(=O)c3cccc(CC(F)(F)F)n3)c(N3CCOCC3)cc2C1=O` (racemic) [Example 25, N-[6-morpholino-1-oxo-2-[rac-(2R)-2-fluoro-3-hydroxy-3-methyl-butyl]isoindolin-5-yl]-6-(2,2,2-trifluoroethyl)pyridine-2-carboxamide] was tested, and the Ki was 6.5 nM.

`Cn1ncc(C(=O)Nc2cc3c(cc2N2CCOCC2)C(=O)N(C[C@@H](F)C(C)(C)O)C3)c1Cl` [Example 33, 5-Chloro-N-[2-[(2R)-2-fluoro-3-hydroxy-3-methyl-butyl]-6-morpholino-1-oxo-isoindolin-5-yl]-1-methyl-pyrazole-4-carboxamide] showed a Ki of 51 nM.

With `CC(C)(O)[C@H](F)CN1Cc2cc(NC(=O)c3cnc4cccnn34)c(N3CCOCC3)cc2C1=O` [Example 1, (R)—N-(2-(2-Fluoro-3-hydroxy-3-methylbutyl)-6-morpholino-1-oxoisoindolin-5-yl)imidazo[1,2-b]pyridazine-3-carboxamide] the Ki was 5.1 nM.

Work on `C[C@@H]1COCCN1c1nc(C(=O)Nc2cc3c(cc2N2CCOCC2)C(=O)N(C[C@@H](F)C(C)(C)O)C3)co1` (racemic) [Example 16, N-(2-((R)-2-fluoro-3-hydroxy-3-methylbutyl)-6-morpholino-1-oxoisoindolin-5-yl)-2-((R)-20-methyl-morpholino) oxazole-4-carboxamide] yielded a Ki of 7 nM.

For `COc1cccc(C(=O)Nc2cc3c(cc2N(C)C)C(=O)N(C[C@@H](F)C(C)(C)O)C3)n1` [Example 19, N-[6-(Dimethyl-amino)-2-[(2R)-2-fluoro-3-hydroxy-3-methyl-butyl]-1-oxo-isoindolin-5-yl]-6-methoxy-pyridine-2-carboxamide], the Ki was 1.5 nM.

With `C[C@H](O)c1cccc(C(=O)Nc2cc3c(cc2N2CCOCC2)C(=O)N(C[C@@H](F)C(C)(C)O)C3)n1` (racemic) [Example 22, N-[6-morpholino-1-oxo-2-[rac-(2R)-2-fluoro-3-hydroxy-3-methyl-butyl]isoindolin-5-yl]-6-[rac-(1S)-1-hydroxyethyl] pyridine-2-carboxamide] the Ki was 9.2 nM.

With `CO[C@H](C)c1cccc(C(=O)Nc2cc3c(cc2N2CCOCC2)C(=O)N(C[C@@H](F)C(C)(C)O)C3)n1` (racemic) [Example 23, N-[6-morpholino-1-oxo-2-[rac-(2R)-2-fluoro-3-hydroxy-3-methyl-butyl]isoindolin-5-yl]-6-[rac-(1R)-1-methoxyethyl] pyridine-2-carboxamide] the Ki was 12 nM.

`C[C@@H](O)c1cccc(C(=O)Nc2cc3c(cc2N2CCOCC2)C(=O)N(C[C@@H](F)C(C)(C)O)C3)n1` (racemic) [Example 21, N-[6-morpholino-1-oxo-2-[rac-(2R)-2-fluoro-3-hydroxy-3-methyl-butyl]isoindolin-5-yl]-6-[rac-(1R)-1-hydroxyethyl] pyridine-2-carboxamide] gave a Ki of 1.7 nM.

For `CC(C)Oc1cccc(C(=O)Nc2cc3c(cc2N(C)C)C(=O)N(C[C@@H](F)C(C)(C)O)C3)n1` [Example 11, N-[6-(Dimethylamino)-2-[(2R)-2-fluoro-3-hydroxy-3-methyl-butyl]-1-oxo-isoindolin-5-yl]-6-isopropoxy-pyridine-2-carboxamide], the Ki was 21 nM.

Work on `C[C@H]1COCCN1c1nc(C(=O)Nc2cc3c(cc2N2CCOCC2)C(=O)N(C[C@@H](F)C(C)(C)O)C3)co1` [Example 10, N-[2-[(2R)-2-Fluoro-3-hydroxy-3-methyl-butyl]-6-morpholino-1-oxo-isoindolin-5-yl]-2-[(3S)-3-methylmorpholin-4-yl]oxazole-4-carboxamide] yielded a Ki of 7.6 nM.

`CC(C)(O)[C@H](F)CN1Cc2cc(NC(=O)c3cccc(C(F)(F)F)n3)c(N3CCOCC3)cc2C1=O` [Example 17, (R)—N-(2-(2-Fluoro-3-hydroxy-3-methylbutyl)-6-morpholino-1-oxoisoindolin-5-yl)-6-(trifluoromethyl)picolinamide] showed a Ki of 2.5 nM.

Molecule `Cn1ccn2ncc(C(=O)Nc3cc4c(cc3N3CCOCC3)C(=O)N(C[C@@H](F)C(C)(C)O)C4)c2c1=O` [Example 26, N-[2-[(2R)-2-Fluoro-3-hydroxy-3-methyl-butyl]-6-morpholino-1-oxo-isoindolin-5-yl]-5-methyl-4-oxo-pyrazolo [1,5-a] pyrazine-3-carboxamide] has a Ki of 47 nM.

For `Cn1cccc(C(=O)Nc2cc3c(cc2N2CCOCC2)C(=O)N(C[C@@H](F)C(C)(C)O)C3)c1=O` [Example 4, (R)-N-(2-(2-Fluoro-3-hydroxy-3-methylbutyl)-6-morpholino-1-oxoisoindolin-5-yl)-1-methyl-2-oxo-1,2-dihydropyridine-3-carboxamide], the Ki was 8 nM.

Work on `CCn1cccc(C(=O)Nc2cc3c(cc2N2CCOCC2)C(=O)N(C[C@@H](F)C(C)(C)O)C3)c1=O` [Example 5, (R)-1-Ethyl-N-(2-(2-fluoro-3-hydroxy-3-methylbutyl)-6-morpholino-1-oxoisoindolin-5-yl)-2-oxo-1,2-dihydropyridine-3-carboxamide] yielded a Ki of 5.6 nM.
